In patent US12371454B2, “Cyclic peptide compound having Kras inhibitory action” (priority 2019, dated 2025):
Positions of bridges follow the written chain, without caps; N, C: chain ends. Non-standard residues stand in square brackets, D forms with d. Residues, ends and D or L forms follow the SMILES beside them. *: point of attachment. hPhe(3-Cl-4-CF3) = N[C@@H](CCc1ccc(C(F)(F)F)c(Cl)c1)C(=O)O; hPhe(3-F,4-CF3) = N[C@@H](CCc1ccc(C(F)(F)F)c(F)c1)C(=O)O; hPhe(3,4-Cl2) = N[C@@H](CCc1ccc(Cl)c(Cl)c1)C(=O)O; hPhe(4-CF3) = N[C@@H](CCc1ccc(C(F)(F)F)cc1)C(=O)O; NMePhe(4-Cl) = CN[C@@H](Cc1ccc(Cl)cc1)C(=O)O; NMePhe(4-Me) = CN[C@@H](Cc1ccc(C)cc1)C(=O)O; Oic = O=C(O)[C@@H]1C[C@@H]2CCCC[C@@H]2N1; NMeGly(cPent) = CN[C@H](C(=O)O)C1CCCC1; Phe(3-I) = N[C@@H](Cc1cccc(I)c1)C(=O)O; Met(O2) = CS(=O)(=O)CC[C@H](N)C(=O)O; NMeAla(cPr) = CN[C@@H](CC1CC1)C(=O)O; NMeCha = CN[C@@H](CC1CCCCC1)C(=O)O; NMehLeu = CN[C@@H](CCC(C)C)C(=O)O; NMeChg = CN[C@H](C(=O)O)C1CCCCC1; NMeF = CN[C@@H](Cc1ccccc1)C(=O)O; NMeD = CN[C@@H](CC(=O)O)C(=O)O; NMeL = CN[C@@H](CC(C)C)C(=O)O; Cba = N[C@@H](CC1CCC1)C(=O)O; Chg = N[C@H](C(=O)O)C1CCCCC1; NMePra = C#CC[C@H](NC)C(=O)O; NMeV = CN[C@H](C(=O)O)C(C)C; d(β3hA) = C[C@@H](N)CC(=O)O; N(iPr)Gly = CC(C)NCC(=O)O; Pip = O=C(O)[C@@H]1CCCCN1; NMeA = CN[C@@H](C)C(=O)O; NMeAib = CNC(C)(C)C(=O)O; Piperidide = C1CCN(*)CC1; Pyrrolidide = C1CCN(*)C1; Ac5c = NC1(C(=O)O)CCCC1; Aze = O=C(O)[C@@H]1CCN1; Aib = CC(C)(N)C(=O)O; Sar = CNCC(=O)O; OAll = C=CCO*

Molecular target: T1, Kras and SOS1 (biotin-tagged human Kras loaded with GDP, His-tagged human SOS1) (Homo sapiens, UniProt P01116, G12D)
T1 construct: made in house; host or cells: E. coli (stated for Kras only)
T1 sequence (P01116 1-188 isoform P01116-2 G12D): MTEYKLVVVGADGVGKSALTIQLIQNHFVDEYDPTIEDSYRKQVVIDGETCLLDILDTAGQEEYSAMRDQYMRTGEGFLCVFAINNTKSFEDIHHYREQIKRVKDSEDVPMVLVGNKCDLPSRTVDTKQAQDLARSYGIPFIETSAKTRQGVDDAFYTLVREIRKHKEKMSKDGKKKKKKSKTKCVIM
Assay: Protein-protein interaction inhibition between Kras and SOS1 (KrasGl2D-SOS PPI) using AlphaScreen
Assay type: binding
Details: not given
How it was run: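 Energy transfer from nickel-chelate donor beads bound to His-SOS1 to streptavidin acceptor beads bound to biotin-Kras, expressed in E. coli and loaded with GDP after purification, was monitored. Donors were excited at 680 nm; singlet oxygen reaching acceptors gave emission read at 520-620 nm.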

Compound	IC50 [nM]
CC[C@H](C)[C@@H]1NC(=O)[C@H](CC(C)C)N(C)C(=O)C[C@@H](C(=O)N2CCCCC2)N(C)C(=O)[C@H](C2CCCCC2)N(C)C(=O)C2(CCCC2)NC(=O)[C@@H]2C[C@@H]3CCCC[C@@H]3N2C(=O)[C@H](CCc2ccc(C(F)(F)F)c(Cl)c2)NC(=O)CN(C)C(=O)[C@H](CC2CCCCC2)N(C)C(=O)CN(C)C(=O)CN(C)C1=O [Compound 297] ([NMeL]I[Sar][Sar][NMeCha][Sar][hPhe(3-Cl-4-CF3)][Oic][Ac5c][NMeChg][NMeD]-Piperidide; lactam N-11)	49

Same assay, conditions: AlphaScreen; biotin-tagged human Kras loaded with GDP, His-tagged human SOS1; read-out: KRAS G12D-SOS PPI IC50

Compound	IC50 [nM]
CC[C@H](C)[C@@H]1NC(=O)[C@H](CC(C)C)N(C)C(=O)C[C@@H](C(=O)N2CCCCC2)N(C)C(=O)[C@H](C2CCCCC2)N(C)C(=O)C2(CCCC2)NC(=O)[C@@H](C)NC(=O)[C@H](CCc2ccc(C(F)(F)F)c(Cl)c2)NC(=O)CN(C)C(=O)[C@H](CC2CCCCC2)N(C)C(=O)CN(C)C(=O)CN(C)C1=O [Compound 277] ([NMeL]I[Sar][Sar][NMeCha][Sar][hPhe(3-Cl-4-CF3)][dA][Ac5c][NMeChg][NMeD]-Piperidide; lactam N-11)	5.1
CC(C)C[C@H]1C(=O)N[C@@H](C2CCCCC2)C(=O)N(C)CC(=O)N(C)CC(=O)N(C)[C@@H](CC2CCCCC2)C(=O)N(C)CC(=O)N[C@@H](CCc2ccc(C(F)(F)F)c(Cl)c2)C(=O)N2CCC[C@H]2C(=O)NC2(CCCC2)C(=O)N(C)[C@@H](C(C)C)C(=O)N(C)[C@H](C(=O)N2CCCCC2)CC(=O)N1C [Compound 281] ([NMeL][Chg][Sar][Sar][NMeCha][Sar][hPhe(3-Cl-4-CF3)]P[Ac5c][NMeV][NMeD]-Piperidide; lactam N-11)	7.8
CC(C)C[C@H]1C(=O)N[C@@H](CCS(C)(=O)=O)C(=O)N(C)CC(=O)N(C)CC(=O)N(C)[C@@H](CC2CCCCC2)C(=O)N(C)CC(=O)N[C@@H](CCc2ccc(C(F)(F)F)c(Cl)c2)C(=O)N2CCC[C@H]2C(=O)NC2(CCCC2)C(=O)N(C)[C@@H](C2CCCCC2)C(=O)N(C)[C@H](C(=O)N2CCCCC2)CC(=O)N1C [Compound 283] ([NMeL][Met(O2)][Sar][Sar][NMeCha][Sar][hPhe(3-Cl-4-CF3)]P[Ac5c][NMeChg][NMeD]-Piperidide; lactam N-11)	6.8
C#CC[C@H]1C(=O)N(C)[C@H](C(=O)N2CCCCC2)CC(=O)N(C)[C@@H](CC(C)C)C(=O)N[C@@H]([C@@H](C)CC)C(=O)N(C)CC(=O)N(C)CC(=O)N(C)[C@@H](CC2CCCCC2)C(=O)N(C)CC(=O)N[C@@H](CCc2ccc(C(F)(F)F)c(Cl)c2)C(=O)N2CCC[C@H]2C(=O)NC2(CCCC2)C(=O)N1C [Compound 284] ([NMeL]I[Sar][Sar][NMeCha][Sar][hPhe(3-Cl-4-CF3)]P[Ac5c][NMePra][NMeD]-Piperidide; lactam N-11)	71
CC[C@H](C)[C@@H]1NC(=O)[C@@H]2CCCCN2C(=O)C[C@@H](C)NC(=O)[C@H](CC(C)C)N(C)C(=O)C(C)(C)NC(=O)[C@H](CC(C)C)N(C)C(=O)[C@H](CCc2ccc(C(F)(F)F)cc2)NC(=O)CN(C)C(=O)[C@H](Cc2ccc(Cl)cc2)N(C)C(=O)CN(C)C(=O)CN(C)C1=O [Compound 286] (cyclo([Aib][NMeL][d(β3hA)][Pip]I[Sar][Sar][NMePhe(4-Cl)][Sar][hPhe(4-CF3)][NMeL]))	96
CC(C)C[C@H]1C(=O)N[C@@H](CC2CCC2)C(=O)N(C)CC(=O)N(C)CC(=O)N(C)[C@@H](CC2CCCCC2)C(=O)N(C)CC(=O)N[C@@H](CCc2ccc(C(F)(F)F)c(Cl)c2)C(=O)N2CCC[C@H]2C(=O)NC2(CCCC2)C(=O)N(C)[C@@H](C(C)C)C(=O)N[C@H](C)CC(=O)N1C [Compound 290] (cyclo([Ac5c][NMeV][d(β3hA)][NMeL][Cba][Sar][Sar][NMeCha][Sar][hPhe(3-Cl-4-CF3)]P))	160
CC[C@H](C)[C@@H]1NC(=O)[C@H](C)N(C)C(=O)C[C@@H](C(=O)N2CCCCC2)N(C)C(=O)[C@H](C(C)C)N(C)C(=O)C2(CCCC2)NC(=O)[C@@H]2CCCN2C(=O)[C@H](CCc2ccc(C(F)(F)F)c(Cl)c2)NC(=O)[C@H]2CCCN2C(=O)[C@H](CC2CCCCC2)N(C)C(=O)[C@@H]2CCN2C(=O)[C@H](C)N(C)C1=O [Compound 293] ([NMeA]I[NMeA][Aze][NMeCha][dP][hPhe(3-Cl-4-CF3)]P[Ac5c][NMeV][NMeD]-Piperidide; lactam N-11)	120
CC[C@H](C)[C@@H]1NC(=O)[C@H](CC(C)C)N(C)C(=O)C[C@@H](C(=O)N2CCCCC2)N(C)C(=O)[C@H](CC(C)C)NC(=O)C(C)(C)N(C)C(=O)[C@H](CC(C)C)NC(=O)[C@H](Cc2cccc(I)c2)NC(=O)CN(C)C(=O)[C@H](Cc2ccc(Cl)cc2)N(C)C(=O)CN(C)C(=O)CN(C)C1=O [Compound 295] ([NMeL]I[Sar][Sar][NMePhe(4-Cl)][Sar][Phe(3-I)]L[NMeAib]L[NMeD]-Piperidide; lactam N-11)	68
CC[C@H](C)[C@@H]1NC(=O)[C@H](CC(C)C)N(C)C(=O)C[C@@H](C(=O)N2CCCCC2)NC(=O)[C@H](CC(C)C)N(C)C(=O)C2(CCCC2)NC(=O)[C@@H]2CCCN2C(=O)[C@H](CCc2ccc(C(F)(F)F)c(F)c2)NC(=O)CN(C)C(=O)[C@H](CC2CCCCC2)N(C)C(=O)CN(C)C(=O)CN(C)C1=O [Compound 298] ([NMeL]I[Sar][Sar][NMeCha][Sar][hPhe(3-F,4-CF3)]P[Ac5c][NMeL]D-Piperidide; lactam N-11)	21
CC[C@H](C)[C@@H]1NC(=O)[C@H](C)N(C)C(=O)C[C@@H](C)NC(=O)[C@H](CC(C)C)N(C)C(=O)[C@H](Cc2ccccc2)N(C)C(=O)[C@@H]2CCCCN2C(=O)[C@H](CCc2ccc(C(F)(F)F)cc2)NC(=O)CN(C)C(=O)[C@H](Cc2ccc(Cl)cc2)N(C)C(=O)CN(C)C(=O)CN(C)C1=O [Compound 299] (cyclo(I[Sar][Sar][NMePhe(4-Cl)][Sar][hPhe(4-CF3)][Pip][NMeF][NMeL][d(β3hA)][NMeA]))	130
CC[C@H](C)[C@@H]1NC(=O)[C@H](CCC(C)C)N(C)C(=O)C[C@@H](C(=O)N(C)C)N(C)C(=O)[C@H](C2CCCC2)N(C)C(=O)C2(CCCC2)NC(=O)[C@@H]2CCCN2C(=O)[C@H](CCc2ccc(C(F)(F)F)c(Cl)c2)NC(=O)CN(C)C(=O)[C@H](Cc2ccc(C)cc2)N(C)C(=O)[C@@H]2CCN2C(=O)[C@H](C)NC1=O [Compound 303, (5S,8S,11S,15S,18S,23aS,29S,35S,37aS)-8-((S)-sec-butyl)-29-(3-chloro-4-(trifluoromethyl)phenethyl)-18-cyclopentyl-11-isopentyl-N,N,5,12,16,19,33,36-octamethyl-35-(4-methylbenzyl)-4,7,10,13,17,20,23,28,31,34,37-undecaoxotetratriacontahydro-2H,4H-spiro[azeto[2,1-u]pyrrolo[2,1-i][1,4,7,10,13,16,19,22,25,28,31]undecaazacyclotetratriacontine-21,1′-cyclopentane]-15-carboxamide] ([NMehLeu]IA[Aze][NMePhe(4-Me)][Sar][hPhe(3-Cl-4-CF3)]P[Ac5c][NMeGly(cPent)][NMeD]-NMe2; lactam N-11)	0.68
CC[C@H](C)[C@@H]1NC(=O)[C@H](CC(C)C)N(C)C(=O)C[C@@H](C)NC(=O)[C@H](C(C)C)N(C)C(=O)C2(CCCC2)NC(=O)[C@@H]2CCCN2C(=O)[C@H](CCc2ccc(C(F)(F)F)c(Cl)c2)NC(=O)CN(C)C(=O)[C@H](CC2CCCCC2)N(C)C(=O)CN(C)C(=O)CN(C(C)C)C1=O [Compound 305] (cyclo([Ac5c][NMeV][d(β3hA)][NMeL]I[N(iPr)Gly][Sar][NMeCha][Sar][hPhe(3-Cl-4-CF3)]P))	170
C=CCOC(=O)CC[C@@H]1NC(=O)[C@H](CCc2ccc(C(F)(F)F)cc2)NC(=O)CN(C)C(=O)[C@H](Cc2ccc(Cl)cc2)N(C)C(=O)CN(C)C(=O)CN(C)C(=O)[C@H]([C@@H](C)CC)NC(=O)[C@H](C)N(C)C(=O)C[C@@H](C(=O)N2CCCC2)NC(=O)[C@H](CC(C)C)N(C)C(=O)[C@H](Cc2ccccc2)N(C)C1=O [Compound 306] ([NMeA]I[Sar][Sar][NMePhe(4-Cl)][Sar][hPhe(4-CF3)]E(OAll)[NMeF][NMeL]D-Pyrrolidide; lactam N-11)	44
CC[C@H](C)[C@@H]1NC(=O)[C@H](CC(C)C)N(C)C(=O)C[C@@H](C(=O)N2CCCC2)N(C)C(=O)[C@H](CC(C)C)NC(=O)C(C)(C)N(C)C(=O)[C@H](CC(C)C)NC(=O)[C@H](CCc2ccc(C(F)(F)F)c(F)c2)NC(=O)CN(C)C(=O)[C@H](CC2CCCCC2)N(C)C(=O)CN(C)C(=O)CN(C)C1=O [Compound 312] ([NMeL]I[Sar][Sar][NMeCha][Sar][hPhe(3-F,4-CF3)]L[NMeAib]L[NMeD]-Pyrrolidide; lactam N-11)	1
CC[C@H](C)[C@@H]1NC(=O)[C@H](CC(C)C)N(C)C(=O)C[C@@H](C(=O)N2CCCCC2)N(C)C(=O)[C@H](CC(C)C)NC(=O)C(C)(C)N(C)C(=O)[C@H](Cc2ccc(OC)cc2)NC(=O)[C@H](Cc2cccc(I)c2)NC(=O)CN(C)C(=O)[C@H](CC2CCCCC2)N(C)C(=O)CN(C)C(=O)CN(C)C1=O [Compound 320] ([NMeL]I[Sar][Sar][NMeCha][Sar][Phe(3-I)]Y(Me)[NMeAib]L[NMeD]-Piperidide; lactam N-11)	9.9
CC[C@H](C)[C@@H]1NC(=O)[C@H](CC(C)C)N(C)C(=O)C[C@@H](C(=O)N2CCCCC2)N(C)C(=O)[C@H](C(C)C)N(C)C(=O)C2(CCCC2)NC(=O)[C@@H]2CCCN2C(=O)[C@H](CCc2ccc(Cl)c(Cl)c2)NC(=O)CN(C)C(=O)[C@H](CC2CCCCC2)N(C)C(=O)[C@@H]2CCCCN2C(=O)CN(C)C1=O [Compound 324] ([NMeL]I[Sar][Pip][NMeCha][Sar][hPhe(3,4-Cl2)]P[Ac5c][NMeV][NMeD]-Piperidide; lactam N-11)	380
CC[C@H](C)[C@@H]1NC(=O)[C@H](CC(C)C)N(C)C(=O)C[C@@H](C(=O)N2CCCCC2)N(C)C(=O)[C@H](C(C)C)N(C)C(=O)C2(CCCC2)NC(=O)[C@@H]2CCCN2C(=O)[C@H](CCc2ccc(C(F)(F)F)c(Cl)c2)NC(=O)CN(C)C(=O)[C@H](CC2CC2)N(C)C(=O)CN(C)C(=O)CN(C)C1=O [Compound 325] ([NMeL]I[Sar][Sar][NMeAla(cPr)][Sar][hPhe(3-Cl-4-CF3)]P[Ac5c][NMeV][NMeD]-Piperidide; lactam N-11)	14
